Consider four compounds from patent US20020120098A1, “Enhanced stimulation of erythropoiesis” (priority 1996, published 2002).

Holding throughout (type): cell-based, human
For one test, the system named is erythroid progenitors. Nature of the test: Colony formation assay (CFA), cord blood LDMNC: erythroid progenitor colonies overall. The note with it: for growth of erythroid progenitor colonies in the absence of Epo: 0 U/ml Epo; for size and colour of erythroid colonies: 2 and 0.2 U/ml Epo, ambient or 5% O2, 1.0 mg/ml HAo or HEMOLINK, 100 μM hemin, day 14. As to the method:
This technique, referred to as the colony formation assay (CFA), is the most widely used biological assay to identify and enumerate erythroid progenitors present in hematopoietic tissue such as blood and bone marrow. Cell populations containing erythroid progenitors are plated in semi-solid suspensions of methyl cellulose, agar, low melting agarose or related substances in nutrient culture medium containing 1-3 U/ml Epo and 10 ng/ml IL-3 to specifically stimulate erythroid progenitors. Plates are incubated at 37° C. for 14 days during which time the erythroid progenitors form characteristic hemoglobinized (red) colonies. Two distinct but related erythroid progenitors can be distinguished based on colony size and morphology: BFU-E, the most primitive recognizable erythroid progenitor forms large multilobular colonies whereas the more mature CFU-E forms smaller spherical colonies.
Adult hemoglobin was purified according to U.S Pat. Nos. 5,439,591 and 5,545,328 to obtain HAo and HEMOLINK™ was prepared from HAo according to U.S. Pat. No. 5,532,352. Human umbilical cord blood intended for discard was collected from the umbilical vein of placentas immediately postpartum into 10 ml vacutainer tubes containing 143 USP units/ml sodium heparin. Low density mononuclear cells were separated from red blood cells by centrifugation over a 1.077 g/ml density gradient Cells removed from the plasma/density gradient interface were incubated overnight in a tissue culture flask with 10 ml cell culture medium containing 10% fetal bovine serum, and non-adherent LDMNC were further purified with an additional density gradient step. The LDMNC were then plated into colony formation assays (CFA) on the second day of isolation. In the CFA, LDMNC were plated at a density of 1×10^5 cells/ml in Iscoves modified Dulbeccos cell culture medium containing 0.8% methyl-cellulose, 30% fetal bovine serum, 1% bovine serum albumin, 0.1 mM 2-mercaptoethanol and 2 mM L-glutamine. Unless indicated otherwise, under standard CFA conditions 2 U/ml Epo and 10 ng/ml IL-3 are added to the formulation to stimulate hematopoietic progenitor growth, specifically BFU-E, CFU-E and CFU-GM.
Each condition was tested in duplicate in from 2-18 independent experiments. Cultures were maintained in a humidified incubator at 37° C., 5% CO2 and ambient oxygen tensions. The number of hematopoietic progenitors was scored between days 13-15 by counting the number and types of colonies present.
Erythroid progenitor colony formation assays were conducted as described in Example 1 except that cultures were incubated at either ambient oxygen tensions (˜20% O2) or 5% O2. The reduced oxygen tension of 5% O2 approximates the physiological intravascular oxygen tension in mammals. The mean fold increase in cord blood BFU-E, CFU-E and CFU-GM progenitor number at 5% O2 produced by 1.0 mg/ml HAo (15.6 μM; n=11) or HEMOLINK™ (15.6 μM; n=6), 100 μM hemin (n=10), 250 μM FeCl3 (n=6) or no addition (n=17-18), is shown FIG. 2. Results are expressed relative to control cells treated only with respective vehicles and cultured at ambient oxygen tensions (˜20% O2; fold expansion=1.0; *p<0.05, **p<0.01).
Erythroid progenitor colony formation assays were conducted as described in Example 1 except that cultures were initiated in the presence of Epo concentrations ranging from 0-2 U/ml. The mean fold increase in cord blood BFU-E, CFU-E and CFU-GM progenitor number produced by 1.0 mg/ml HAo (15.6 μM; n=9) or HEMOLINK™ (15.6 μM; n=6), 100 μM hemin (n=8), 250 μM FeCl3 (n=6), or no addition (n=9-10) in the presence of reduced Epo concentrations (0.2 U/ml) is shown in FIG. 3. Cultures were maintained at ambient oxygen tensions (˜20% O2) for 14 days. Results are expressed relative to control cells at 2 U/ml Epo treated only with the respective vehicles (solid line at fold expansion=1.0; *p<0.05, **p<0 01). Erythroid progenitor colonies were undetectable in the absence of Epo. […]

A further test concerns erythroid colonies. Nature of the test: Hemoglobin production by erythroid colonies, anion exchange HPLC. As to conditions: 5% O2, 2 U/ml Epo; for adult Hb / fetal Hb / total Hb: 100 μM hemin, 1.0 mg/ml HAo or HEMOLINK, 250 μM FeCl3; for adult Hb per cell / fetal Hb per cell / total Hb per cell: estimated assuming 30,000 cells/BFU-E and 100 cells/CFU-E. As for the experimental part:
Hemoglobin synthesis in erythroid colonies was analyzed by anion exchange high performance liquid chromatography (HPLC). Colonies were harvested from CFA plates and cell lysates were prepared after the progenitor colonies had been enumerated. Colonies were isolated from methyl cellulose by several washes in PBS. The cells were pelleted and lysed in 50 mM Tris, pH 8.8 and the cell debris removed by pelleting the cell lysate. The lysate supernatants were filtered through a 0.2 ,μm filter prior to loading onto a POROS® HQ/H anion exchange HPLC column (PerSeptive Biosystems). The hemoglobin was eluted with an increasing NaCl gradient and the optical density (O.D.) monitored at a wavelength of 414 nm The amount of hemoglobin present in the lysates was quantitated by comparison with standard hemoglobin solutions of adult (HbA) and fetal hemoglobin (HbF).
Representative HPLC profiles for hemoglobin produced by erythroid colonies that formed at 5% O2 in the presence of 2 U/ml Epo with no addition (vehicle only), 100 μM hemin, 1.0 mg/ml HAo (15.6 μM) HAo, 1.0 mg/ml HEMOLINK™ (15.6 μM), or 250 μM FeCl3 are shown in FIG. 7.

For another test, the system named is BFU-E. As to the kind of experiment: Colony formation assay, CD34+/CD38- and CD34+/CD33- enriched cord blood cells: BFU-E. The note with it: 2 U/ml Epo, 5% O2, 14 days; vs untreated controls under same conditions. An excerpt: CD34^+/CD38^− cells were isolated from cord blood LDMNC using the STEMSEP™ system (StemCell Technologies Inc., Vancouver, Canada). The CD34^+/CD38^− cell purity was increased from <0.1% in unfractionated LDMNC to ˜81% CD34^+/CD38^− cells post fractionation as determined by flow cytometry. To obtain the CD34^+/CD33^− cells CD34^+ cells were first isolated from cord blood LDMNC using the CEPRATE™ LC system (CellPro Inc., Bothell, Wash.). The CD34^+/CD33^− fraction was then enriched to ˜94% purity by flow fluorescence activated cell sorting (FACS; Epics Elite, Coulter Electronics, Hialeah, Fla.). The colony formation assay was conducted as described in Examples 1-4, except that 1×10^3 CD34^+ cells/ml were plated versus 1×10^3 unfractionated cord blood LDMNC/ml normally plated. Mean fold increase in BFU-E and CFU-E progenitor number produced from CD34^+ CD38^− enriched (a; n=2) and CD34^+ CD33^− enriched (b; n=1) cord blood LDMNC stimulated by 1.0 mg/ml HAo (15.6 μM) or HEMOLINK™ (15.6 μM), 100 μM hemin 250 μM FeCl3 in the presence of 2 U/ml Epo is shown in FIG. 13. Cultures were maintained at 5% O2 for 14 days. The results are expressed relative cells treated only with the respective vehicles and cultured under the same conditions.

`[Cl][Fe]([Cl])[Cl]` [FeCl3]: the “number of erythroid colonies at 0.2 U/ml Epo and 5% O2 (in words)” value with erythroid progenitors (5% O2, 0.2 U/ml Epo, 250 μM FeCl3) is on record as “did not significantly increase the number of erythroid colonies”. In the test on erythroid progenitors (5% O2, 2 U/ml Epo, 250 μM FeCl3), the “fold expansion of erythroid progenitors at 5% O2 (in words)” value was “did not increase the fold expansion of erythroid progenitors beyond that of the untreated controls at 5% O2”. Besides, in the test with erythroid colonies, the “adult Hb” value is 5.0 µg, the “fetal Hb” value came to 9.5 µg, the “total Hb” value came to 14.5 µg and the “adult Hb per cell” value is recorded as 0.14 pg/cell. Moreover, in the test with erythroid colonies, the “fetal Hb per cell” value is reported as 0.26 pg/cell and the “total Hb per cell” value is listed as 0.40 pg/cell. Moreover, the “increase in BFU-E from CD34+ enriched progenitor populations (in words)” value (“increase in BFU-E” below) in the test with BFU-E was “to a lesser extent”.
For `C=CC1=C(C)C2=Cc3c(C=C)c(C)c4[n]3[Fe-2]35([Cl])[n]6c(c(C)c(CCC(=O)O)c6=CC6=[N+]3C(=C4)C(C)=C6CCC(=O)O)=CC1=[N+]25` [hemin], in the test with erythroid progenitors, the “growth of erythroid progenitor colonies in the absence of Epo” value (from here on “growth of erythroid progenitor colonies”) is listed as “could not support the growth of erythroid progenitor colonies in the absence of Epo”; the “size and colour of erythroid colonies” value is “mostly smaller and less red in color”. In addition, in the test on erythroid colonies, the “adult Hb” value amounted to 8.7 µg, the “fetal Hb” value was 19.4 µg, the “total Hb” value turned out to be 28.1 µg and the “adult Hb per cell” value is on record as 0.14 pg/cell. In addition, in the test with erythroid colonies, the “fetal Hb per cell” value is 0.32 pg/cell and the “total Hb per cell” value is 0.46 pg/cell. The “increase in BFU-E” value with BFU-E is listed as “stimulated an increase in BFU-E”.
Take “HAo: adult human hemoglobin obtained from red blood cells and purified by displacement chromatography; uncross linked product”: in the test on erythroid progenitors, the “growth of erythroid progenitor colonies” value is listed as “could not support the growth of erythroid progenitor colonies in the absence of Epo”; the “size and colour of erythroid colonies” value was “larger and redder”. The “concentration at which significant stimulation of erythroid progenitor colony formation is observed” value with erythroid progenitors (2 U/ml Epo, ambient O2) is 7.8 µM. Also, in the test on erythroid colonies, the “adult Hb” value is 22.6 µg, the “fetal Hb” value worked out at 33.1 µg, the “total Hb” value came out at 55.7 µg and the “adult Hb per cell” value is 0.37 pg/cell. Further, in the test on erythroid colonies, the “fetal Hb per cell” value is 0.54 pg/cell and the “total Hb per cell” value is on record as 0.91 pg/cell. Besides, the “increase in BFU-E” value with BFU-E is “stimulated an increase in BFU-E”.
“HEMOLINK™: chemically crosslinked hemoglobin prepared by treating human hemoglobin with a polyaldehyde (O-raffinose)”: in the test on erythroid progenitors, the “growth of erythroid progenitor colonies” value is listed as “could not support the growth of erythroid progenitor colonies in the absence of Epo”; the “size and colour of erythroid colonies” value is “larger and redder”. In addition, in the test on erythroid colonies, the “adult Hb” value was 20.5 µg, the “fetal Hb” value was 28.0 µg, the “total Hb” value came out at 48.5 µg and the “adult Hb per cell” value was 0.38 pg/cell. Besides, in the test on erythroid colonies, the “fetal Hb per cell” value is 0.51 pg/cell and the “total Hb per cell” value is reported as 0.89 pg/cell. Besides, the “increase in BFU-E” value in the test with BFU-E is “stimulated an increase in BFU-E”.
